Source: patent US20090318424A1, “NOVEL COMPOUNDS” (priority 2006, published 2009)
“Also recorded” adds a separate entry of the source.

Assays:
[1] = test system: influx of neutrophils to the lung in LPS-challenged rats; experiment: Rat LPS neutrophilia model; assay type: in vivo; conditions: LPS aerosol 100 ug/ml 15 min, lavage 4 hours later; in at least one of the range of conditions tested
Method: The effect of compounds on the influx of neutrophils to the lung in LPS-challenged rats is evaluated as follows. The test compound is suspended in one of the following solutions: 0.5% tween 80/PBS, 0.5% tween 80/saline, 10% EtOH/saline (with pH adjusted to 2.0, or 8.0 with HCl, or unadjusted), Saline @ pH 2.0, 6.5 or 8.0, 0.5% Tragacanth, 1% DMSO/20% Encapsin/Saline, or acidified 5% Tragacanth. The suspension process may be aided by the use of a glass homogenizer. For intratracheal administration, the animals are anesthetized with inhaled isoflurane and placed in a supine position, the trachea is intubated with a steel gavage needle (1.5 inch, 22 gauge, small ball) or a Penn-Century Microsprayer Aerosolizer (model IA-IB) and 200 ul of dosing solution is delivered. The animals are visually monitored during the recovery process, which typically occurs within two minutes.
Rats treated with compound or vehicle (15 min-24 hours pretreatment) are exposed to an LPS aerosol (100 ug/ml) for 15 min. Four hours later the rats are euthanized with pentobarbital (100 mg/kg, i.p.) and the airways are lavaged with 5 washes of 5 ml of phosphate buffered saline. The harvested cells are stained (Diffquick) and counted to determine total and differential cell data. In a typical study, macrophages represent 40-70% of the total cells, and polymorphonuclear cells 30-60% of the total cells. Inhibition of neutrophil levels relative to no compound controls is calculated based on the differential counts.
The assay has varying conditions, such as concentration, pretreat time, form of the compound (crystalline, amorphous, salts, micronised), and a wet or dry application of the compound. The data is obtained as % inhibition using a particular concentration and pretreat time.

[2] = test system: TGF-β-induced increases in fibronectin and thrombospondin; conditions: cited from earlier work
[3] = test system: circulating levels of TNFα; conditions: mice; cited from earlier work
[4] = patients with sleep apnea; cited from earlier work
[5] = patients suffering from Psoriasis; seen as early as 4 weeks, persisted for 12 weeks; cited from earlier work

Cc1ccc(C(=O)Nc2ccc(C)c(-c3nc(NC4CC(C)(C)NC(C)(C)C4)nc4c3CNC(=O)N4c3c(F)cccc3F)c2)cc1F [23(e), N-(3-{8-(2,6-difluorophenyl)-7-oxo-2-[(2,2,6,6-tetramethyl-4-piperidinyl)amino]-5,6,7,8-tetrahydropyrimido[4,5-d]pyrimidin-4-yl}-4-methylphenyl)-3-fluoro-4-methylbenzamide]
melting point: 220 °C (dec.)
inhibition of neutrophilia [1]: statistically nonsignificant inhibition

Cc1ccc(NC(=O)c2ccsc2)cc1-c1nc(N2CCC(N)CC2)nc2c1CNC(=O)N2c1c(F)cccc1F [Example 11, N-{3-[2-(4-amino-1-piperidinyl)-8-(2,6-difluorophenyl)-7-oxo-5,6,7,8-tetrahydropyrimido[4,5-d]pyrimidin-4-yl]-4-methylphenyl}-3-thiophenecarboxamide]
melting point: 250 to 261 °C (dec.)
inhibition of neutrophilia [1]: statistically significant inhibition

Cc1ccc(C(=O)NCc2ccccc2)cc1-c1nc(N(C)CCCN(C)C)nc2c1CNC(=O)N2c1c(F)cccc1F [Example 17, 3-{8-(2,6-Difluorophenyl)-2-[[3-(dimethylamino)propyl](methyl)amino]-7-oxo-5,6,7,8-tetrahydropyrimido[4,5-d]pyrimidin-4-yl}-4-methyl-N-(phenylmethyl)benzamide]
melting point: 124 to 127 °C
inhibition of neutrophilia [1]: statistically nonsignificant inhibition

Cc1ccc(C(=O)Nc2ccc(C)c(-c3nc(N4CCC(N)CC4)nc4c3CNC(=O)N4c3c(F)cccc3F)c2)cc1F [Example 24, N-{3-[2-(4-amino-1-piperidinyl)-8-(2,6-difluorophenyl)-7-oxo-5,6,7,8-tetrahydropyrimido[4,5-d]pyrimidin-4-yl]-4-methylphenyl}-3-fluoro-4-methylbenzamide]
melting point: 240 °C
inhibition of neutrophilia [1]: statistically nonsignificant inhibition

Cc1ccc(C(=O)Nc2ccc(C)c(-c3nc(OC(C)C)nc4c3CNC(=O)N4c3c(F)cccc3F)c2)cc1F [Example 26, N-(3-{8-(2,6-difluorophenyl)-2-[(1-methylethyl)oxy]-7-oxo-5,6,7,8-tetrahydropyrimido[4,5-d]pyrimidin-4-yl}-4-methylphenyl)-3-fluoro-4-methylbenzamide]
melting point: 253.5 to 255.4 °C
inhibition of neutrophilia [1]: inactive

Cc1ccc(C(=O)Nc2ccc(C)c(-c3nc(N(C)C)nc4c3CNC(=O)N4c3c(F)cccc3F)c2)cc1F [Example 28, N-{3-[8-(2,6-difluorophenyl)-2-(dimethylamino)-7-oxo-5,6,7,8-tetrahydropyrimido[4,5-d]pyrimidin-4-yl]-4-methylphenyl}-3-fluoro-4-methylbenzamide]
melting point: 257.8 to 264.3 °C
inhibition of neutrophilia [1]: statistically nonsignificant inhibition

Cc1ccc(C(=O)NCc2ccccc2)cc1-c1nc(N2CCN(C)CC2)nc2c1CNC(=O)N2c1c(F)cccc1F [Example 148, 3-[8-(2,6-difluorophenyl)-2-(4-methyl-1-piperazinyl)-7-oxo-5,6,7,8-tetrahydropyrimido[4,5-d]pyrimidin-4-yl]-4-methyl-N-(phenylmethyl)benzamide]
melting point: 164 to 168 °C
inhibition of neutrophilia [1]: statistically nonsignificant inhibition

Cc1ccc(C(=O)NCc2ccccc2)cc1-c1nc(NCCCN(C)C)nc2c1CNC(=O)N2c1c(F)cccc1F [Example 151, 3-(8-(2,6-difluorophenyl)-2-{[3-(dimethylamino)propyl]amino}-7-oxo-5,6,7,8-tetrahydropyrimido[4,5-d]pyrimidin-4-yl)-4-methyl-N-(phenylmethyl)benzamide]
melting point: 141 to 144 °C
inhibition of neutrophilia [1]: statistically nonsignificant inhibition

CNC(=O)c1ccc(C)c(-c2nc(NCCCN(C)C)nc3c2CNC(=O)N3c2c(F)cccc2F)c1 [Example 166, 3-(8-(2,6-difluorophenyl)-2-{[3-(dimethylamino)propyl]amino}-7-oxo-5,6,7,8-tetrahydropyrimido[4,5-d]pyrimidin-4-yl)-N,4-dimethylbenzamide]
melting point: 164 to 167 °C (dec.)
inhibition of neutrophilia [1]: statistically nonsignificant inhibition

CCN(CC)CCCNc1nc(-c2cc(C(=O)NC)ccc2C)c2c(n1)N(c1c(F)cccc1F)C(=O)NC2 [Example 172, 3-[2-{[3-(diethylamino)propyl]amino}-8-(2,6-difluorophenyl)-7-oxo-5,6,7,8-tetrahydropyrimido[4,5-d]pyrimidin-4-yl]-N,4-dimethylbenzamide]
melting point: 133 to 136 °C
inhibition of neutrophilia [1]: statistically nonsignificant inhibition

CNC(=O)c1ccc(C)c(-c2nc(N(C)CCCN(C)C)nc3c2CNC(=O)N3c2c(F)cccc2F)c1 [Example 174, 3-{8-(2,6-difluorophenyl)-2-[[3-(dimethylamino)propyl](methyl)amino]-7-oxo-5,6,7,8-tetrahydropyrimido[4,5-d]pyrimidin-4-yl}-N,4-dimethylbenzamide]
melting point: 163 to 165 °C
inhibition of neutrophilia [1]: inactive

CNC(=O)c1ccc(C)c(-c2nc(N3CCC(N4CCCC4)CC3)nc3c2CNC(=O)N3c2c(F)cccc2F)c1 [Example 175, 3-{8-(2,6-difluorophenyl)-7-oxo-2-[4-(1-pyrrolidinyl)-1-piperidinyl]-5,6,7,8-tetrahydropyrimido[4,5-d]pyrimidin-4-yl}-N,4-dimethylbenzamide]
melting point: 189 to 194 °C (dec.)
inhibition of neutrophilia [1]: inactive

CNC(=O)c1ccc(C)c(-c2nc(N3CCC(N4CCCCC4)CC3)nc3c2CNC(=O)N3c2c(F)cccc2F)c1 [Example 176, 3-[2-(1,4′-bipiperidin-1′-yl)-8-(2,6-difluorophenyl)-7-oxo-5,6,7,8-tetrahydropyrimido[4,5-d]pyrimidin-4-yl]-N,4-dimethylbenzamide]
melting point: 179 to 184 °C (dec.)
inhibition of neutrophilia [1]: statistically nonsignificant inhibition

COc1nccc(-c2c(-c3ccc(F)cc3)ncn2C2CCNCC2)n1 [SB-242235]
TGF-β-induced increases in fibronectin and thrombospondin [2]: inhibited

CC(NC(C)(C)C)C(=O)c1cccc(Cl)c1 (stereo not drawn) [bupropion]
circulating levels of TNFα [3]: reduce circulating levels of TNFα

etanercept
sleepiness [4]: decreases in sleepiness
symptoms of depression (HAMD and BDI score) and fatigue [5]: demonstrated efficacy; also recorded: reduce symptoms of depression
